# Read-outs that look alike come from different tables or passages of the source.
# Columns and labels:
# [1] = Stability of prodrugs in aqueous solution at pH 7.4 (phosphate buffer); type: physicochemical; conditions: in vitro evaluation, pH 7.4 adjusted solution
# [2] = as above; type: physicochemical
# Procedure: Determination of stability of prodrugs in aqueous solutions.
# Prodrugs were dissolved in pH 7.4 phosphate buffer at concentration of 1 mg/mL. • The clear solution was placed at room temperature. 400 μL aliquots of the solution were transferred at times 0, 1, 2, 8, 24, and 48 hours to plastic tubes containing 400 μL dilute HCl solution to achieve the final pH of around 4.0. Samples were analyzed by HPLC. The peak area of florfenicol was used to determine the rate of the parent drug release. at pH 4.5 • Prodrugs were dissolved in distilled water at concentration of 0.5 mg/mL. The pH was adjusted to 4.5 with dilute HCl when necessary. The clear solution was placed at room temperature. Samples for analysis were removed at times 0, 1, 2, 4, and 7 days. Samples were analyzed by HPLC. Peak area of florfenicol was used to determine the rate of the parent drug release.
# (§1) Solvent: gradient with 0.1% formic acid in water, acetonitrile
# [3] = Stability of prodrugs in aqueous solution at pH 4.5; type: physicochemical; conditions: distilled water, pH 4.5, room temperature, florfenicol release by HPLC
# Procedure: Determination of stability of prodrugs in aqueous solutions. Prodrugs were dissolved in pH 7.4 phosphate buffer at concentration of 1 mg/mL. • The clear solution was placed at room temperature. 400 μL aliquots of the solution were transferred at times 0, 1, 2, 8, 24, and 48 hours to plastic tubes containing 400 μL dilute HCl solution to achieve the final pH of around 4.0. Samples were analyzed by HPLC. The peak area of florfenicol was used to determine the rate of the parent drug release. at pH 4.5 • Prodrugs were dissolved in distilled water at concentration of 0.5 mg/mL. The pH was adjusted to 4.5 with dilute HCl when necessary. The clear solution was placed at room temperature. Samples for analysis were removed at times 0, 1, 2, 4, and 7 days. Samples were analyzed by HPLC. Peak area of florfenicol was used to determine the rate of the parent drug release. Instrument: Agilent 1100 Column: C18, […], 2.1 mm×150 mm Flow rate: 0.5 mL/min Temperature: 30° C. Detector: UV 254 nm Injection volume: […] Solvent: gradient with 0.1% formic acid in water, acetonitrile
# [4] = Stability of prodrugs in bovine serum; type: in vitro ADME; conditions: for half-life at 0.099 mg/mL: 37° C.
# Procedure: (§2) Determination of stability of prodrugs in bovine or swine serum; • 10 mg/mL in dimethylsulfoxide stock solutions of pro-drugs were prepared. 50 μL of the above stock solution was added to 5 mL bovine or swine serum, and mixed. 400 μL aliquots of the above pro-drug serum solutions were transferred into plastic tubes (one tube per time point). Solutions were incubated at 37° C. for predetermined time. Samples were removed at times 0, 1, 2, 4, 8, and 24 hours and were spiked with 400 μL of acetonitrile. Samples were stirred for 30 seconds to precipitate the protein and to stop the reaction and were centrifuged at 14,000 rpm for 5 minutes. The supernatant was collected for HPLC analysis. Peak area of florfenicol was used to determine the rate of the parent drug release HPLC Conditions
# as §1
# [5] = Stability of prodrugs in swine serum; type: in vitro ADME; conditions: 37° C., florfenicol release by HPLC
# Procedure: as §2, §1
# [6] = pH 7.4, pH 7.4 aqueous solutions, range from a few minutes to 3 hrs, read-out: Half-lives in pH 7.4 aqueous solutions
# [7] = pH 7.4, pH 7.4 phosphate buffer, 1 mg/mL, room temperature, florfenicol release by HPLC, read-out: Half life pH 7.4 (converted)
SMILES,formation of the rearranged isomer of the prodrug [1],"half-life at 1 mg/mL [2, 6] [h]","half-life at 1 mg/mL [2, 7] [h]",half-life at 0.5 mg/mL [3] [days],half-life at 0.099 mg/mL ([4]; florfenicol release by HPLC) [h],half-life at 0.099 mg/mL [5] [h],rearrangement in bovine serum [4],"half-life at 1 mg/mL ([2]; pH 7.4, pH 7.4 phosphate buffer, 1 mg/mL, room temperature, min, read-out: Half life pH 7.4 (converted)) [h]",half-life at 0.099 mg/mL ([4]; min) [h]
"CS(=O)(=O)c1ccc([C@@H](OC(=O)OCCN)[C@@H](CF)NC(=O)C(Cl)Cl)cc1.Cl [Example 1, (1R,2S)-2-(2,2-dichloroacetamido)-3-fluoro-1-(4-(methylsulfonyl)phenyl)propyl 2-aminoethyl carbonate hydrochloride]",considerable amounts,≤ 3,1.8,202,0.7,–,–,–,–
"CNCCOC(=O)O[C@H](c1ccc(S(C)(=O)=O)cc1)[C@@H](CF)NC(=O)C(Cl)Cl.Cl [Example 2, (1R,2S)-2-(2,2-dichloroacetamido)-3-fluoro-1-(4-(methylsulfonyl)phenyl)propyl 2-(methylamino)ethyl carbonate hydrochloride]",considerable amounts,≤ 3,0.5,487,–,–,–,–,–
"CS(=O)(=O)c1ccc([C@@H](OC(=O)CCCN)[C@@H](CF)NC(=O)C(Cl)Cl)cc1.Cl [Example 3, (1R,2S)-2-(2,2-dichloroacetamido)-3-fluoro-1-(4-(methylsulfonyl)phenyl)propyl 4-aminobutyrate hydrochloride]",–,–,300,–,3.5,–,–,–,–
"C[C@@H](N)C(=O)NCCCC(=O)O[C@H](c1ccc(S(C)(=O)=O)cc1)[C@@H](CF)NC(=O)C(Cl)Cl.Cl [Example 4, (1R,2S)-2-(2,2-dichloroacetamido)-3-fluoro-1-(4-(methylsulfonyl)phenyl)propyl 4-(2-amino-propionylamino)butyrate hydrochloride]",–,–,670,278,6.5,–,–,–,–
"CS(=O)(=O)c1ccc([C@@H](OC(=O)OCCCN)[C@@H](CF)NC(=O)C(Cl)Cl)cc1.Cl [Example 5, (1R,2S)-2-(2,2-dichloroacetamido)-3-fluoro-1-(4-(methylsulfonyl)phenyl)propyl 3-aminopropyl carbonate hydrochloride]",only a small amount of rearrangement product,–,83,248,3.8,9.5,no rearrangement was observed,–,–
"CNCCCOC(=O)O[C@H](c1ccc(S(C)(=O)=O)cc1)[C@@H](CF)NC(=O)C(Cl)Cl.Cl [Example 6, (1R,2S)-2-(2,2-dichloroacetamido)-3-fluoro-1-(4-(methylsulfonyl)phenyl)propyl 3-(methylamino)propyl carbonate hydrochloride]",did not show any formation of the rearranged isomer,–,74,269,0.69,7,–,–,–
"CCNCCOC(=O)O[C@H](c1ccc(S(C)(=O)=O)cc1)[C@@H](CF)NC(=O)C(Cl)Cl.Cl [Example 7, (1R,2S)-2-(2,2-dichloroacetamido)-3-fluoro-1-(4-(methylsulfonyl)phenyl)propyl 2-(ethylamino)ethyl carbonate hydrochloride]",considerable amounts,≤ 3,6.1,156,0.59,–,–,–,–
CS(=O)(=O)c1ccc([C@@H](OC(=O)[C@H](N)CCCN)[C@@H](CF)NC(=O)C(Cl)Cl)cc1.Cl.Cl [Example 8],–,≤ 3,–,44,–,–,–,< 0.167,< 0.167

# Now from value to compound:
formation of the rearranged isomer of the prodrug [1],"half-life at 1 mg/mL [2, 6] [h]","half-life at 1 mg/mL [2, 7] [h]",half-life at 0.5 mg/mL [3] [days],half-life at 0.099 mg/mL ([4]; florfenicol release by HPLC) [h],half-life at 0.099 mg/mL [5] [h],rearrangement in bovine serum [4],"half-life at 1 mg/mL ([2]; pH 7.4, pH 7.4 phosphate buffer, 1 mg/mL, room temperature, min, read-out: Half life pH 7.4 (converted)) [h]",half-life at 0.099 mg/mL ([4]; min) [h],SMILES
–,≤ 3,0.89,52,1.4,1.2,–,–,–,"CS(=O)(=O)c1ccc([C@@H](OC(=O)CNC(=O)CN)[C@@H](CF)NC(=O)C(Cl)Cl)cc1.Cl [Example 9, (1R,2S)-2-(2,2-dichloroacetamido)-3-fluoro-1-(4-(methylsulfonyl)phenyl)propyl (1-amino-acetoamino)acetate hydrochloride]"
–,–,100,643,0.49,4.1,–,–,–,"CS(=O)(=O)c1ccc([C@@H](OC(=O)CCCCN)[C@@H](CF)NC(=O)C(Cl)Cl)cc1.Cl [Example 10, (1R,2S)-2-(2,2-dichloroacetamido)-3-fluoro-1-(4-(methylsulfonyl)phenyl)propyl 5-aminopentanoate hydrochloride]"
–,≤ 3,2.5,290,–,–,–,–,< 0.167,"C[C@H](N)C(=O)N[C@@H](C)C(=O)O[C@H](c1ccc(S(C)(=O)=O)cc1)[C@@H](CF)NC(=O)C(Cl)Cl.Cl [Example 11, (1R,2S)-2-(2,2-dichloroacetamido)-3-fluoro-1-(4-(methylsulfonyl)phenyl)propyl 2-(2-amino-propionylamino)propionate hydrochloride]"
–,–,84,567,1.4,–,–,–,–,CNCCCCC(=O)O[C@H](c1ccc(S(C)(=O)=O)cc1)[C@@H](CF)NC(=O)C(Cl)Cl.Cl [Example 12]
–,–,290,339,0.71,–,–,–,–,"CCNCCCOC(=O)O[C@H](c1ccc(S(C)(=O)=O)cc1)[C@@H](CF)NC(=O)C(Cl)Cl.Cl [Example 13, (1R,2S)-2-(2,2-dichloroacetamido)-3-fluoro-1-(4-(methylsulfonyl)phenyl)propyl 3-(ethylamino)propyl carbonate hydrochloride]"
–,≤ 3,0.66,137,–,–,–,–,< 0.167,"CS(=O)(=O)c1ccc([C@@H](OC(=O)COCCN)[C@@H](CF)NC(=O)C(Cl)Cl)cc1.Cl [Example 14, (1R,2S)-2-(2,2-dichloroacetamido)-3-fluoro-1-(4-(methylsulfonyl)phenyl)propyl (2-amino-ethoxy)acetate hydrochloride]"
–,–,160,> 1000,–,–,–,–,–,Br.C[N+](C)(C)CCCC(=O)O[C@H](c1ccc(S(C)(=O)=O)cc1)[C@@H](CF)NC(=O)C(Cl)Cl [Example 15]
–,–,350,> 1000,10.5,–,–,–,–,"Br.Cn1cc[n+](CCCC(=O)O[C@H](c2ccc(S(C)(=O)=O)cc2)[C@@H](CF)NC(=O)C(Cl)Cl)c1 [Example 16, 1-[3-[2-(2,2-Dichloro-acetylamino)-3-fluoro-1-(4-methanesulfonyl-phenyl)-propoxycarbonyl]-propyl]-3-methyl-3H-imidazol-1-ium bromide]"
–,–,4.4,18,1.8,–,–,–,–,"CS(=O)(=O)c1ccc([C@@H](OC(=O)CN)[C@@H](CF)NC(=O)C(Cl)Cl)cc1 [Example 17, Amino-acetic acid 2-(2,2-dichloro-acetylamino)-3-fluoro-1-(4-methanesulfonyl-phenyl)-propyl ester]"
